{"source": "patent US10767186B2", "about": "“Organic compounds” (Novartis AG, priority 2007, dated 2020)", "key": {"[1]": {"target": "FRα (FR alpha) and FRβ (FR beta)", "conditions": "cited from earlier work; for Kd: FRα and FRβ"}, "[2]": {"target": "T1, reduced folate carrier (RFC) (Homo sapiens, UniProt P41440)", "T1 sequence (P41440 1-591)": "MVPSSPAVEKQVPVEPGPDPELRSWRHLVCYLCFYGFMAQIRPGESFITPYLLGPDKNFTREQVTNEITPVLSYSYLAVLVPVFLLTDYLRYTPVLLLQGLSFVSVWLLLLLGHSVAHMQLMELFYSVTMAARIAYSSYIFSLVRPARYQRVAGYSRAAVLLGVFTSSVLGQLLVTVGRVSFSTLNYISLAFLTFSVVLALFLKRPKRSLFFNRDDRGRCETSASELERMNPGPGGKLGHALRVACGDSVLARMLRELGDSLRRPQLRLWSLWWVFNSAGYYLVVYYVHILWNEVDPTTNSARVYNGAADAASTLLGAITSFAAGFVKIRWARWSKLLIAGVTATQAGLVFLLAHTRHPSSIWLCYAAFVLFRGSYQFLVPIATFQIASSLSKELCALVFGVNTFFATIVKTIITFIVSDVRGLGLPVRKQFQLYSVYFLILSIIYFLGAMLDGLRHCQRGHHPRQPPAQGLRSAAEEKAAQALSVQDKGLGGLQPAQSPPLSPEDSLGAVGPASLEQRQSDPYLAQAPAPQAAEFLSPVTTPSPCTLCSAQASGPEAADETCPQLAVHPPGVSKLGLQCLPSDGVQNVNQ", "conditions": "cited from earlier work"}, "CHO-K1 cell line": {"test_system": "CHO-K1 cell line", "assay": "Folic acid starvation experiment, cell survival", "format": "cell-based, Chinese hamster", "description": "Cells are cultivated in such medium and cell viability is analyzed to quantify the percentage of surviving cells."}, "RFC-deficient C15 cells": {"test_system": "RFC-deficient C15 cells", "assay": "Antibody production of test vector clones at low folic acid (ELISA)", "format": "cell-based, Chinese hamster", "description": "The cells are lacking RFC transporter activity, as disclosed elsewhere (Assaraf, Y. G. and Schimke, R. T. (1987) Proc. Natl. Acad. Sci. USA 84, 7154-7158; Rothem, L., et al., Mol. Pharmacol. 68: 616-624).\nRFC-deficient C15 cells are transfected with the test vector by electroporation. […] Cells are diluted to a final density of 5 cells/ml and seeded at 100 μl/well in 96-well plates (i.e. 0.5 cells/well). […] The co-selection utilizing the folate system of the present invention together with an additional selection system (i.e. neo/G418) is applied to provide optimal performance of the selection process. […] This is corroborated by further analysis of antibody expression in the various clones.\nThe analysis of antibody production is performed in principle as outlined in Example 1.4 above. The concentration of the secreted antibody is monitored using an ELISA assay as follows: Maxisorp microplates are coated with an anti-human IgG. Following blocking with a buffer containing bovine serum albumin (BSA) and several washes, multiple dilutions of the secreted antibody samples are added. Then, a peroxidase-conjugated second antibody consisting of goat anti-human IgG-peroxidase is added. Finally, a colorimetric peroxidase substrate is added following which the resultant dye concentration is determined in each well spectrophotometrically and then compared to standard concentrations of known IgG concentrations."}}}
{"compound": "CN(Cc1cnc2nc(N)nc(N)c2n1)c1ccc(C(=O)N[C@@H](CCC(=O)O)C(=O)O)cc1", "note": "[MTX, 4-amino-10-methylfolic acid]", "values": [{"measurement": "Kd", "setting": "[1]", "result": "> 100", "unit": "nM"}]}
{"compound": "Nc1nc2c(c(=O)[nH]1)N(C=O)C(CNc1ccc(C(=O)N[C@@H](CCC(=O)O)C(=O)O)cc1)CN2", "note": "(some centres unmarked) [leucovorin, 5-formyl-THF]", "values": [{"measurement": "Kt (transport affinity)", "setting": "[2]", "result": 1, "unit": "µM"}]}
{"compound": "Nc1nc2ncc(CNc3ccc(C(=O)N[C@@H](CCC(=O)O)C(=O)O)cc3)nc2c(=O)[nH]1", "note": "[folic acid]", "values": [{"measurement": "Precentage of Survival", "setting": "CHO-K1 cell line; FA concentration 0.1 nM", "result": 2.08}, {"measurement": "Precentage of Survival", "setting": "CHO-K1 cell line; FA concentration 1 nM", "result": 2.45}, {"measurement": "Precentage of Survival", "setting": "CHO-K1 cell line; FA concentration 3 nM", "result": 2}, {"measurement": "Precentage of Survival", "setting": "CHO-K1 cell line; FA concentration 10 nM", "result": 2.7}, {"measurement": "Precentage of Survival", "setting": "CHO-K1 cell line; FA concentration 30 nM", "result": 6.8}, {"measurement": "Precentage of Survival", "setting": "CHO-K1 cell line; FA concentration 100 nM", "result": 55.5}, {"measurement": "Precentage of Survival", "setting": "CHO-K1 cell line; FA concentration 300 nM", "result": 88.6}, {"measurement": "Precentage of Survival", "setting": "CHO-K1 cell line; FA concentration 1000 nM", "result": 100.8}, {"measurement": "Precentage of Survival", "setting": "CHO-K1 cell line; FA concentration 2300 nM", "result": 100}, {"measurement": "CmAb: concentration of the secreted antibody in the medium", "setting": "RFC-deficient C15 cells; folic acid 60 pM in the medium", "result": "216 ± 30", "unit": "µg/L"}, {"measurement": "CmAb: concentration of the secreted antibody in the medium", "setting": "RFC-deficient C15 cells; folic acid 600 pM in the medium", "result": "138 ± 15", "unit": "µg/L"}, {"measurement": "CmAb: concentration of the secreted antibody in the medium", "setting": "RFC-deficient C15 cells; folic acid 1200 pM in the medium", "result": "19 ± 8", "unit": "µg/L"}, {"measurement": "Kt (transport affinity)", "setting": "[2]", "result": "200 to 400", "unit": "µM"}]}
{"compound": "C#CCN(c1ccc(C(=O)N[C@@H](CCC(=O)N[C@H](CCC(=O)O)C(=O)O)C(=O)O)cc1)[C@H]1CCc2cc3nc(CO)[nH]c(=O)c3cc21", "note": "[BGC945]", "values": [{"measurement": "Kd", "setting": "[1]", "result": 1, "unit": "nM"}]}
{"compound": "Nc1nc2c(c(=O)[nH]1)CC(CCc1ccc(C(=O)N[C@@H](CCC(=O)O)C(=O)O)cc1)CN2", "note": "(some centres unmarked) [DDATHF, 5,10-dideazatetrahydrofolic acid]", "values": [{"measurement": "Ki", "setting": "[1]; using [3H]folic acid as a substrate", "result": "0.4 to 1.3", "unit": "nM"}]}
